Values after ≈ are worked out from the molar mass of the structure shown.
Tests used:
[1] = Solubility in phosphate buffered saline; assay type: physicochemical; conditions: pH 7.4
Procedure: To a sample of the material of known mass were added known volumes of phosphate buffered saline until complete dissolution is observed. Suspensions were centrifuged for 5 min at 10000 rpm. […] Upon complete dissolution, the solution is diluted until the final concentration is 0.5 mg/mL to ensure that the material remains soluble over the entire range of concentrations.

S. aureus ATCC 13709 = experiment: In vitro antibacterial susceptibility (MIC, broth microdilution); assay type: cell-based; conditions: for MIC against S. aureus ATCC 13709, CAMHB: cation-adjusted Mueller-Hinton broth, 37° C., 18 h; for Antibacterial activity compared with oritavancin 5: deduced from the MIC data of Table 2
Procedure: Susceptibility of S. aureus strain ATCC13709 to oritavancin (5) and synthesized compounds was determined following the guidelines set by the Clinical and Laboratory Standards Institute (formerly the National Committee for Clinical Laboratory Standards) (M26-A). Compounds were serially diluted two-fold in either DMSO (Oritavancin 5) or in PBS and transferred to cation-adjusted Mueller Hinton broth (CAMHB; Becton Dickinson). 50 μL of compounds diluted in CAMHB was mixed with 100 μL of bacteria diluted in CAMHB in 96-well microtiter plates. The final number of micro-organisms in the assay was 5×10^5 c.f.u. per mL and the final concentration of DMSO in the assay, if present, was 1.25%. All solutions may contain 0.002% Tween as indicated. Assays were set up in duplicate and incubated at 37° C. for 18 h. The concentration of compound that inhibited visible growth was reported as the minimum inhibitory concentration (MIC).

[2] = 10 mM phosphate buffered saline (0.138 M NaCl, 2.7 mM KCl)

Row | SMILES | Solubility (mg/mL) PBS [1, 2] | MIC against S. aureus ATCC 13709, CAMHB + 0.002% tween (S. aureus ATCC 13709) [mg/L] | MIC against S. aureus ATCC 13709, CAMHB + 50% human serum (S. aureus ATCC 13709) [mg/L] | MIC against S. aureus ATCC 13709, CAMHB + 50% mouse serum (S. aureus ATCC 13709) [mg/L] | MIC against S. aureus ATCC 13709, CAMHB + 50% rat serum (S. aureus ATCC 13709) [mg/L] | MIC against S. aureus ATCC 13709, CAMHB (S. aureus ATCC 13709) [mg/L] | Antibacterial activity compared with oritavancin 5 (S. aureus ATCC 13709) | Solubility (mg/mL) PBS [1] [mg/mL]
1 | CC(C)CC(C(=O)NC1C(=O)NC(CC(N)=O)C(=O)NC2C(=O)NC3C(=O)NC(C(=O)NC(C(=O)O)c4cc(O)cc(O)c4-c4cc3ccc4O)C(OC3CC(C)(N)C(O)C(C)O3)c3ccc(c(Cl)c3)Oc3cc2cc(c3OC2OC(CO)C(O)C(O)C2OC2CC(C)(NCc3ccc(-c4ccc(Cl)cc4)cc3)C(O)C(C)O2)Oc2ccc(cc2Cl)C1O)N(C)C(=O)CNC(=O)C(N)CCCCN (centres unmarked) [Compound 61] | <0.5 mg/mL | 0.25 | 0.25 | 1 | 0.5 | 2 (≈ 1.01 µM) | within an order of magnitude of that of oritavancin 5 | 
2 | CNC(CC(C)C)C(=O)NC1C(=O)NC(CC(N)=O)C(=O)NC2C(=O)NC3C(=O)NC(C(=O)NC(C(=O)OCC(=O)NCCCNCCCCNCCCN)c4cc(O)cc(O)c4-c4cc3ccc4O)C(OC3CC(C)(N)C(O)C(C)O3)c3ccc(c(Cl)c3)Oc3cc2cc(c3OC2OC(CO)C(O)C(O)C2OC2CC(C)(NCc3ccc(-c4ccc(Cl)cc4)cc3)C(O)C(C)O2)Oc2ccc(cc2Cl)C1O (centres unmarked) [Compound 28] | ≧100 mg/mL | 0.125 | 0.25 | 0.25 | 0.063 | 2 (≈ 0.983 µM) | within an order of magnitude of that of oritavancin 5 | 
3 | CC(C)CC(C(=O)NC1C(=O)NC(CC(N)=O)C(=O)NC2C(=O)NC3C(=O)NC(C(=O)NC(C(=O)O)c4cc(O)cc(O)c4-c4cc3ccc4O)C(OC3CC(C)(N)C(O)C(C)O3)c3ccc(c(Cl)c3)Oc3cc2cc(c3OC2OC(CO)C(O)C(O)C2OC2CC(C)(NCc3ccc(-c4ccc(Cl)cc4)cc3)C(O)C(C)O2)Oc2ccc(cc2Cl)C1O)N(C)C(=O)OCOC(=O)C(N)CCCCN (centres unmarked) [Compound 44] | <0.5 mg/mL | 0.5 | 4 | 0.25 | 0.5 | 4 (≈ 2 µM) | within an order of magnitude of that of oritavancin 5 | 
4 | CC(C)CC(C(=O)NC1C(=O)NC(CC(N)=O)C(=O)NC2C(=O)NC3C(=O)NC(C(=O)NC(C(=O)O)c4cc(O)cc(O)c4-c4cc3ccc4O)C(OC3CC(C)(N)C(O)C(C)O3)c3ccc(c(Cl)c3)Oc3cc2cc(c3OC2OC(CO)C(O)C(O)C2OC2CC(C)(NCc3ccc(-c4ccc(Cl)cc4)cc3)C(O)C(C)O2)Oc2ccc(cc2Cl)C1O)N(C)C(=O)OCOC(=O)CCP(=O)(O)O (centres unmarked) [Compound 84] | 0.5 to 1 mg/mL | 0.125 | 0.5 | 2 |  | 1 (≈ 0.499 µM) | within an order of magnitude of that of oritavancin 5 | 
5 | CC(C)CC(C(=O)NC1C(=O)NC(CC(N)=O)C(=O)NC2C(=O)NC3C(=O)NC(C(=O)NC(C(=O)O)c4cc(O)cc(O)c4-c4cc3ccc4O)C(OC3CC(C)(N)C(O)C(C)O3)c3ccc(c(Cl)c3)Oc3cc2cc(c3OC2OC(CO)C(O)C(O)C2OC2CC(C)(NCc3ccc(-c4ccc(Cl)cc4)cc3)C(O)C(C)O2)Oc2ccc(cc2Cl)C1O)N(C)C(=O)CNCCCNCCCCNCCCN (centres unmarked) [Compound 36] |  | 0.06 | 0.125 | 0.25 | 0.125 | 1 (≈ 0.491 µM) |  | 
6 | CNC(CC(C)C)C(=O)NC1C(=O)NC(CC(N)=O)C(=O)NC2C(=O)NC3C(=O)NC(C(=O)NC(C(=O)SCC[N+](C)(C)C)c4cc(O)cc(O)c4-c4cc3ccc4O)C(OC3CC(C)(N)C(O)C(C)O3)c3ccc(c(Cl)c3)Oc3cc2cc(c3OC2OC(CO)C(O)C(O)C2OC2CC(C)(NCc3ccc(-c4ccc(Cl)cc4)cc3)C(O)C(C)O2)Oc2ccc(cc2Cl)C1O (centres unmarked) [Compound 98] |  | 0.25 | 0.25 | 2 | 0.125 | 1 | within an order of magnitude of that of oritavancin 5 | 
7 | CC(C)CC(C(=O)NC1C(=O)NC(CC(N)=O)C(=O)NC2C(=O)NC3C(=O)NC(C(=O)NC(C(=O)O)c4cc(O)cc(O)c4-c4cc3ccc4O)C(OC3CC(C)(N)C(O)C(C)O3)c3ccc(c(Cl)c3)Oc3cc2cc(c3OC2OC(CO)C(O)C(O)C2OC2CC(C)(NCc3ccc(-c4ccc(Cl)cc4)cc3)C(O)C(C)O2)Oc2ccc(cc2Cl)C1O)N(C)C(=O)OCOC(=O)C(CCCCN)NC(=O)C(N)CCCCN (centres unmarked) [Compound 56] | >5 mg/mL | 0.5 | 4 | 0.5 | 0.25 | 2 (≈ 0.942 µM) | within an order of magnitude of that of oritavancin 5 | 
8 | CC(=O)[O-].CNC(CC(C)C)C(=O)NC1C(=O)NC(CC(N)=O)C(=O)NC2C(=O)NC3C(=O)NC(C(=O)NC(C(=O)SCC[N+](C)(C)C)c4cc(O)cc(O)c4-c4cc3ccc4O)C(OC3CC(C)(N)C(O)C(C)O3)c3ccc(c(Cl)c3)Oc3cc2cc(c3OC2OC(CO)C(O)C(O)C2OC2CC(C)(NCc3ccc(-c4ccc(Cl)cc4)cc3)C(O)C(C)O2)Oc2ccc(cc2Cl)C1O (centres unmarked) [98 (acetate salt)] |  |  |  |  |  |  |  | 20
9 | CC(C)CC(C(=O)NC1C(=O)NC(CC(N)=O)C(=O)NC2C(=O)NC3C(=O)NC(C(=O)NC(C(=O)O)c4cc(O)cc(O)c4-c4cc3ccc4O)C(OC3CC(C)(N)C(O)C(C)O3)c3ccc(c(Cl)c3)Oc3cc2cc(c3OC2OC(CO)C(O)C(O)C2OC2CC(C)(NCc3ccc(-c4ccc(Cl)cc4)cc3)C(O)C(C)O2)Oc2ccc(cc2Cl)C1O)N(C)C(=O)OCOC(=O)CNCCCNCCCCNCCCN (centres unmarked) [Compound 38] | <0.5 mg/mL | 0.25 | 1 | 1 | 0.5 | 2 (≈ 0.948 µM) | within an order of magnitude of that of oritavancin 5 | 
10 | CNC(CC(C)C)C(=O)NC1C(=O)NC(CC(N)=O)C(=O)NC2C(=O)NC3C(=O)NC(C(=O)NC(C(=O)NCCCNCCCCNCCCN)c4cc(O)cc(O)c4-c4cc3ccc4O)C(OC3CC(C)(N)C(O)C(C)O3)c3ccc(c(Cl)c3)Oc3cc2cc(c3OC2OC(CO)C(O)C(O)C2OC2CC(C)(NCc3ccc(-c4ccc(Cl)cc4)cc3)C(O)C(C)O2)Oc2ccc(cc2Cl)C1O (centres unmarked) [Compound 24] | ≧100 mg/mL | 0.5 | 1 | 0.06 | 0.06 | 1 (≈ 0.506 µM) | within an order of magnitude of that of oritavancin 5 | 
11 | CC(C)CC(C(=O)NC1C(=O)NC(CC(N)=O)C(=O)NC2C(=O)NC3C(=O)NC(C(=O)NC(C(=O)O)c4cc(O)cc(O)c4-c4cc3ccc4O)C(OC3CC(C)(N)C(O)C(C)O3)c3ccc(c(Cl)c3)Oc3cc2cc(c3OC2OC(CO)C(O)C(O)C2OC2CC(C)(NCc3ccc(-c4ccc(Cl)cc4)cc3)C(O)C(C)O2)Oc2ccc(cc2Cl)C1O)N(C)C(=O)CCC(=O)N(CC(=O)O)CC(=O)O (centres unmarked) [Compound 13] | 5.5 mg/mL (≈ 2740 µM) | 2 | 64 | 64 | 32 | 4 (≈ 1.99 µM) | weaker activities | 
12 | CC(C)CC(C(=O)NC1C(=O)NC(CC(N)=O)C(=O)NC2C(=O)NC3C(=O)NC(C(=O)NC(C(=O)O)c4cc(O)cc(O)c4-c4cc3ccc4O)C(OC3CC(C)(NC(=O)OCOC(=O)C(N)CCCCN)C(O)C(C)O3)c3ccc(c(Cl)c3)Oc3cc2cc(c3OC2OC(CO)C(O)C(O)C2OC2CC(C)(NCc3ccc(-c4ccc(Cl)cc4)cc3)C(O)C(C)O2)Oc2ccc(cc2Cl)C1O)N(C)C(=O)OCOC(=O)C(N)CCCCN (centres unmarked) [Compound 46] | <0.5 mg/mL | 0.25 | 0.5 | 1 | 0.25 | 1 (≈ 0.455 µM) | within an order of magnitude of that of oritavancin 5 | 

From patent US8901072B2, “Glycopeptide and lipoglycopeptide antibiotics with improved solubility” (The Medicines Company, priority 2009, dated 2014)
